Data on four compounds can be found in patent US11773132B2, “Cyclic di-nucleotides as stimulator of interferon genes modulators” (Beijing Xuanyi PharmaSciences Co., Ltd., priority 2017, dated 2023).

T1 sequence (Q86WV6 whole entry R71H/G230A/H232R/R293Q): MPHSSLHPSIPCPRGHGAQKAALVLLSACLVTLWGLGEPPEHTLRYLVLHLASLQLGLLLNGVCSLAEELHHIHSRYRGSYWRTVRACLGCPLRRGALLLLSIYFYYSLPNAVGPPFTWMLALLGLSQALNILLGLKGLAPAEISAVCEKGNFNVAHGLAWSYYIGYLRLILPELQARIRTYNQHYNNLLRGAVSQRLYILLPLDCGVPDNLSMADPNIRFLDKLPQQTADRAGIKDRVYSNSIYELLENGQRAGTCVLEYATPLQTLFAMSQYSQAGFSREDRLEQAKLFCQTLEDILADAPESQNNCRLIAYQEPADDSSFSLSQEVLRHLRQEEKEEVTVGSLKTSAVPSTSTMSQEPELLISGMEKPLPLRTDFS

This assay concerns the target T1, Human STING (Homo sapiens, UniProt Q86WV6, G230A/H232R/R293Q/R71H).
T1 construct: host or cells: THP1-Dual cells (human monocytic reporter line)
Kind of assay: THP1-Dual cell assay, IRF pathway reporter luminescence readout (QUANTI-Luc). It is filed as cell-based. Conditions: THP1-Dual cells, 24 h, 30 μM, Table 2. The method, then:
STING pathway activation by the compounds described herein was measured using THP-1 dual cells. These cells are THP1 monocytes that have been modified to be reporters for the IRF pathway, which is activated by STING agonists in these cells.
THP1-Dual cells (obtained from Invivogen) are maintained in growth medium with 100 ug/ml of Zeocin and 10 ug/ml of blasticidin at 37° C., 5% CO2, the cells were passaged every 3 days by inoculating 7×10^5 cells per ml and centrifuged at 1000 rpm for 5 min. Supernatant was removed and THP-1 Dual cells were re-suspended at 5×10^5 cells/ml in fresh pre-warmed growth medium.
[…]. 50 ul of Cell suspension (about 2.5×10^4 cells per well) was added in 384-well plate, which was incubated for 24 hours at 37° C., 5% CO2. QUANTI-Luc was prepared and used following the manufacturer's instructions, 5×10^3 cells per well were seeded in 40 μl medium and incubated overnight. Luminometer was set with the following parameters: 50u of injection, end-point measurement with a 4 second start time and 0.1 second reading time. 10 ul of THP-1 Dual cell culture medium per well was added into a 96-well white (opaque) plate, luminescence was measured and calculated.
As for `BP1(=O)OC[C@H]2O[C@@H](n3cnc4c(NCc5ccccc5)ncnc43)[C@H](OP(=O)(S)OC[C@H]3O[C@@H](n4cnc5c(NCc6ccccc6)ncnc54)[C@H](O)[C@@H]3O1)[C@@H]2O` (single isomer, unassigned) [Compound D1], the “Readout Average” value was determined as 22040, the “Readout n = 1” value came to 22420 and the “Readout n = 2” value was found to be 21660.

For `BP1(=O)OC[C@H]2O[C@@H](n3cnc4c(NCc5ccccc5)ncnc43)[C@H](OP(=O)(S)OC[C@H]3O[C@@H](n4cnc5c(NCc6ccccc6)ncnc54)[C@H](O)[C@@H]3O1)[C@@H]2O` (single isomer, unassigned) [Compound D2], the “Readout Average” value was found to be 23960, the “Readout n = 1” value amounted to 18350 and the “Readout n = 2” value turned out to be 29570.

On to `BP1(=O)OC[C@H]2O[C@@H](n3cnc4c(NCc5ccccc5)ncnc43)[C@H](OP(=O)(S)OC[C@H]3O[C@@H](n4cnc5c(NCc6ccccc6)ncnc54)[C@H](O)[C@@H]3O1)[C@@H]2O` (single isomer, unassigned) [Compound D3], for which the “Readout Average” value worked out at 273875, the “Readout n = 1” value was determined as 289010 and the “Readout n = 2” value was determined as 258740.

With `BP1(=O)OC[C@H]2O[C@@H](n3cnc4c(NCc5ccccc5)ncnc43)[C@H](OP(=O)(S)OC[C@H]3O[C@@H](n4cnc5c(NCc6ccccc6)ncnc54)[C@H](O)[C@@H]3O1)[C@@H]2O` (single isomer, unassigned) [Compound D4], the “Readout Average” value is listed as 510240, the “Readout n = 1” value was determined as 534040 and the “Readout n = 2” value worked out at 486440.
